Article PMC12645437, “Orthogonal IMiD-Degron Pairs Induce Selective Protein Degradation in Cells” (ACS Chemical Biology, 2025)
“And” between values parts separate entries of the source, which are not always exact repeats. Equal entries are not always repeated.

How the values were obtained:
[1] = biological target: APIS mutant ZF degron fused to EGFP (Homo sapiens, UniProt Q96SW2+Q9UKT9, N149P/Q147A/Q150I); test: Ratiometric EGFP:mCherry flow cytometry degradation assay, 18 h
[2] = biological target: T1, ZF-EGFP fusion protein with the HEIP, AEVK, WEIS, or WT ZF degron (Homo sapiens, UniProt Q9UKT9, N149E/Q147H/Q150I/S154P); test: Western blot for ZF-EGFP fusion protein; format: cell-based; conditions: transduced Jurkat, 18 h
T1 construct: The degron spans residues 130–189 of IKZF3; expressed in transfected cells; host or cells: Jurkat, lentivirally transduced, presorted mCherry+

[3] = biological target: T2, ZF-EGFP fusion protein with the HEIP, AEVK, WEIS, or WT ZF degron (Homo sapiens, UniProt Q9UKT9, N149E/Q147A/Q150V/S154K); test: Western blot for ZF-EGFP fusion protein; format: cell-based; conditions: transduced Jurkat, 18 h
T2 construct: The degron spans residues 130–189 of IKZF3; expressed in transfected cells; host or cells: Jurkat, lentivirally transduced, presorted mCherry+

[4] = biological target: FEVP mutant ZF degron fused to EGFP (Homo sapiens, UniProt Q96SW2+Q9UKT9, N149E/Q147F/Q150V/S154P); test: Ratiometric EGFP:mCherry flow cytometry degradation assay, 18 h
[5] = biological target: T3, WEIS-EGFP in 3T3 mouse cells (UniProt Q8C7D2+Q9UKT9, N149E/Q147W/Q150I); test: EGFP/mCherry flow cytometry degradation assay in 3T3 cells; format: cell-based; conditions: 18 h; compared to human cells
T3 construct: IKZF3 130aa-142aa 170-189aa fused to EGFP; EGFP (fusion partner, via a linker); expressed in transfected cells; host or cells: 3T3 mouse cells, lentivirally transduced with WEIS-EGFP-IRES-mCherry (Artichoke-derived, Addgene #73320)
Protocol: It is also noteworthy that this system is not yet optimized for use in mouse cells, as mouse cereblon contains a key V388I mutation that prevents IMiD-induced recruitment of ZF neosubstrates. […] We anticipate that mutations could be introduced to this degron to make it mouse-compatible for future in vivo studies.
Figure S24. Dose response curve for 3T3 mouse cells lentivirally transduced with WEIS-EGFP-
IRES-mCherry incubated with a concentration curve of compound 23 (1pM – 10 μM) for 18 h and
analyzed by flow cytometry.
(1 picture or pasted object on this page, not shown here)

[6] = tested on: Jurkat cells; test: Compound cellular stability HPLC assay; format: in vitro ADME, human; conditions: 25 μM
Protocol: We hypothesized that the time-dependent variation in DC50 values for compound 23 might result from instability in the cellular environment or export from the cells, leading to a lower cellular concentration after the 24 h period. To assess its cellular stability, we incubated Jurkat cells with 25 μM of compound 23 and analyzed how much compound was recovered from the cells after 0.5, 6, and 24 h (Figure S21) using HPLC analysis. […] The data also indicate that compound 23 is being metabolized, transported out of the cells, or both, over a 24 h period, explaining the increase in DC50 value by this time point (Figure G,H).
Figure S21. Assessing crude cellular stability of compound in 23 in mammalian cells using HPLC.
Jurkat cells were incubated with 25 µM of compound 23 for 0.5 h, 6 h, or 24 h. Cells were washed
with PBS and lysed with MeOH, clarified, and analyzed by HPLC. Compound 23 presence in the
lysate was assessed using HPLC at a UV/Vis absorbance of 190 nm. After 0.5 h we observed 130
incubating at rt for 3 minutes, then reading using an EnVision multimode plate reader
(PerkinElmer). The data have been expressed as % of DMSO control. Three biological repeats
were carried out for this assay, with each biological replicate plate comprising three replicate
Compound Cellular Stability HPLC Assay
Analytical HPLC assay to identify compound 23 in mammalian cell lysate. Jurkat cells were
cultured as described previously and seeded at a density of 2.5 × 10^5 cells per well in a 6-well
plate. Cells were treated with 25 µM of compound 23 or DMSO, keeping the final concentration
either 0.5 h, 6 h, or 24 h. Cells were then pelleted, supernatant removed, and cells were washed
twice with 1 mL of PBS, centrifuging each time at 6,500 rpm on a tabletop centrifuge to avoid
prematurely lysing the cells. PBS was then removed, and cells were lysed with 100 µL of HPLC- […]
0.1% formic acid. […] Samples were read using a Shimadzu system […]
processed using LabSolutions (Version 5.117). Sample components were measured using the UV
absorbance at 190 nm and 254 nm. The reported analysis is the UV absorbance at 190 nm. […]

[7] = biological target: T4, ZF-EGFP fusion protein with the HEIP, AEVK, WEIS, or WT ZF degron (Homo sapiens, UniProt Q9UKT9, N149E/Q147W/Q150I); test: Western blot for ZF-EGFP fusion protein; format: cell-based; conditions: transduced Jurkat, 18 h
T4 construct: The degron spans residues 130–189 of IKZF3; expressed in transfected cells; host or cells: Jurkat, lentivirally transduced, presorted mCherry+
T4 sequence (Q9UKT9 130-189 Q147W/N149E/Q150I): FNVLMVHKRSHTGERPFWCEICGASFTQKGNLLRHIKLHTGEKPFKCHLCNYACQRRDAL
T4 sequence (Q96SW2 whole entry partner, the tested form may be a part): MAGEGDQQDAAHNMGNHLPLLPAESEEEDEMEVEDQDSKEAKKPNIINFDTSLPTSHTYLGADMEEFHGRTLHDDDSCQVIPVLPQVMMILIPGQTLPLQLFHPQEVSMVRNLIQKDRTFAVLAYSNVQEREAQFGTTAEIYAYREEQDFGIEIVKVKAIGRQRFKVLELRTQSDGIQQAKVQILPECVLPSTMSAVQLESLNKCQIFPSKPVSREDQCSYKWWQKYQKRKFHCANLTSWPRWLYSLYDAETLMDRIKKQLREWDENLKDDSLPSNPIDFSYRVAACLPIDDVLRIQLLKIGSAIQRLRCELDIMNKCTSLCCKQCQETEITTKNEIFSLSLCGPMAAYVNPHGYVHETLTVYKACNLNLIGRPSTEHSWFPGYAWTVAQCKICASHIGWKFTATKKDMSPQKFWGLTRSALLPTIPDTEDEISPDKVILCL
T4 sequence (Q16531 2-1140 partner): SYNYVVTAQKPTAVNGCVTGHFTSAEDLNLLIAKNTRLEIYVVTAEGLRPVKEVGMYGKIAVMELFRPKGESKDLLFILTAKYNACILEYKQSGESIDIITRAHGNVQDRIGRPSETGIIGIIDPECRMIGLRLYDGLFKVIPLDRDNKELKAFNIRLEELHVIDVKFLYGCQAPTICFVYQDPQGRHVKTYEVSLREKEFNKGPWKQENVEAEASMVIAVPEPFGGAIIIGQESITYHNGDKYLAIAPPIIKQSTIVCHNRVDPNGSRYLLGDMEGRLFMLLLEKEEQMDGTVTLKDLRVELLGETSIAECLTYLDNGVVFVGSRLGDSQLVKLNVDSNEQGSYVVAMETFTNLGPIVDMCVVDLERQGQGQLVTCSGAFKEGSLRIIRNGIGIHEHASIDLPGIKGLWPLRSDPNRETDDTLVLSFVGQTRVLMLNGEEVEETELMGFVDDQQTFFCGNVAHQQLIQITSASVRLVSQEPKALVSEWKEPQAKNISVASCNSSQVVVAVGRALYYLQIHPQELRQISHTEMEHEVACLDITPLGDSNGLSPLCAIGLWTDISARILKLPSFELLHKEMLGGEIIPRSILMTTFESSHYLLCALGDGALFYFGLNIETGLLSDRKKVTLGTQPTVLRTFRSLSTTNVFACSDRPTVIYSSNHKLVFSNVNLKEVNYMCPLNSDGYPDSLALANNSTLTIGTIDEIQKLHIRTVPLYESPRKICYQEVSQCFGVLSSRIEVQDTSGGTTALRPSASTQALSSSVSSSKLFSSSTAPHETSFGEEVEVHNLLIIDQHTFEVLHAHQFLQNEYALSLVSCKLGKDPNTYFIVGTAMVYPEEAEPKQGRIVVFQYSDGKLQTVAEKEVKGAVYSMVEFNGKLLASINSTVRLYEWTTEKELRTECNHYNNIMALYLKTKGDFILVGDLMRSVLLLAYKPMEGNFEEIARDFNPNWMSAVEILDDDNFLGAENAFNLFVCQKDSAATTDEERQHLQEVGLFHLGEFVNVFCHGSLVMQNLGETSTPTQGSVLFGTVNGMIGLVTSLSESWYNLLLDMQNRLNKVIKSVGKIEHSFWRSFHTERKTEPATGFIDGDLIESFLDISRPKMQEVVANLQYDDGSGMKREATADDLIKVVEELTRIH

Sequence of APIS mutant ZF degron fused to EGFP (Q9UKT9 130-189 Q147A/N149P/Q150I): as the sequence (Q9UKT9 130-189 Q147W/N149E/Q150I) above, with W18A, E20P counted along it
Sequence of APIS mutant ZF degron fused to EGFP (Q96SW2 whole entry, the tested form may be a part): as the sequence (Q96SW2 whole entry partner, the tested form may be a part) above
Sequence of APIS mutant ZF degron fused to EGFP (Q16531 whole entry partner, the tested form may be a part): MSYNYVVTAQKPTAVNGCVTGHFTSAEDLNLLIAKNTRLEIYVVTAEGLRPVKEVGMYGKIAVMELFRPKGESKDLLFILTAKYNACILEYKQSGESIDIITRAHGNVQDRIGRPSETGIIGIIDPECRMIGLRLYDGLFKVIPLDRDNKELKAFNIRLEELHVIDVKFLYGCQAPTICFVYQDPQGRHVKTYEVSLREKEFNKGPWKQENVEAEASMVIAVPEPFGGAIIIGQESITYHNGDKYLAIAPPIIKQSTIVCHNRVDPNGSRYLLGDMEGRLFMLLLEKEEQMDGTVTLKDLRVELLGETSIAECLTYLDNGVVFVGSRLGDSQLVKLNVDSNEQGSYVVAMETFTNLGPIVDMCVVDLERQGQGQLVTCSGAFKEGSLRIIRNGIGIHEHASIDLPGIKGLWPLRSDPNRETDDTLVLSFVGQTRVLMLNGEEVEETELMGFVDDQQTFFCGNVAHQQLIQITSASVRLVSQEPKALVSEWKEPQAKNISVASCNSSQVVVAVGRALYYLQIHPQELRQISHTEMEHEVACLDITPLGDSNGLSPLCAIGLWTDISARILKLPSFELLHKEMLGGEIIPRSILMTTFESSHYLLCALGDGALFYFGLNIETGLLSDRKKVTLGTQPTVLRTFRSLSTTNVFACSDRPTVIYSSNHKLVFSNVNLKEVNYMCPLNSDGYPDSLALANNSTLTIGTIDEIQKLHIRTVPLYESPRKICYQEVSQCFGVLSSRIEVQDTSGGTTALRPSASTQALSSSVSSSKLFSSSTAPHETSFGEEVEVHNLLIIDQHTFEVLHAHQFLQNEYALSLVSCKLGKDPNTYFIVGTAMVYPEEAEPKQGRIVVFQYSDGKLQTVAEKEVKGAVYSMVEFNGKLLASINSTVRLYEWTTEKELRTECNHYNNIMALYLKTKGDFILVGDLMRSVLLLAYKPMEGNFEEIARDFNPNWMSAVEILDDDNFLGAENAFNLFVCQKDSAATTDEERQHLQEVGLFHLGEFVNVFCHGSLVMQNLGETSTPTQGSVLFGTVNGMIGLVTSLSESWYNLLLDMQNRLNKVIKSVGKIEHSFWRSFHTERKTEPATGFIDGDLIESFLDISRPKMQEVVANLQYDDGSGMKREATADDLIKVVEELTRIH
Sequence of FEVP mutant ZF degron fused to EGFP (Q9UKT9 130-189 Q147F/N149E/Q150V/S154P): as the sequence (Q9UKT9 130-189 Q147W/N149E/Q150I) above, with W18F, I21V, S25P counted along it
Sequence of FEVP mutant ZF degron fused to EGFP (Q96SW2 whole entry, the tested form may be a part): as the sequence (Q96SW2 whole entry partner, the tested form may be a part) above
Sequence of FEVP mutant ZF degron fused to EGFP (Q16531 whole entry partner, the tested form may be a part): as the sequence (Q16531 whole entry partner, the tested form may be a part) above
T3 sequence (Q9UKT9 130-189 Q147W/N149E/Q150I): as the sequence (Q9UKT9 130-189 Q147W/N149E/Q150I) above
T3 sequence (Q8C7D2 whole entry, the tested form may be a part): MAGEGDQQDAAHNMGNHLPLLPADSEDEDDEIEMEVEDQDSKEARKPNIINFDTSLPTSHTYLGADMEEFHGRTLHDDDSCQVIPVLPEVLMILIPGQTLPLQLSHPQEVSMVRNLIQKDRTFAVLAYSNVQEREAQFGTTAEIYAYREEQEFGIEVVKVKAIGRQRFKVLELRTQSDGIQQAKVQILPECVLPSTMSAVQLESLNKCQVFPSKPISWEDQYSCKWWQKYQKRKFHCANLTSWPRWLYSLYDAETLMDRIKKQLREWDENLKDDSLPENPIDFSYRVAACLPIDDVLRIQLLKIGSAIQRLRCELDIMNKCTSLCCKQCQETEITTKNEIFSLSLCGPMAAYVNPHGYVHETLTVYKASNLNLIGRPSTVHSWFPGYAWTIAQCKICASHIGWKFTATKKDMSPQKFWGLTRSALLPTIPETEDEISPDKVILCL
T3 sequence (Q3U1J4 whole entry partner, the tested form may be a part): as the sequence (Q16531 whole entry partner, the tested form may be a part) above, with N418G, A495G, T745S, T1020A counted along it
T1 sequence (Q9UKT9 130-189 Q147H/N149E/Q150I/S154P): as the sequence (Q9UKT9 130-189 Q147W/N149E/Q150I) above, with W18H, S25P counted along it
T1 sequence (Q96SW2 whole entry partner, the tested form may be a part): as the sequence (Q96SW2 whole entry partner, the tested form may be a part) above
T1 sequence (Q16531 2-1140 partner): as the sequence (Q16531 2-1140 partner) above
T2 sequence (Q9UKT9 130-189 Q147A/N149E/Q150V/S154K): as the sequence (Q9UKT9 130-189 Q147W/N149E/Q150I) above, with W18A, I21V, S25K counted along it
T2 sequence (Q96SW2 whole entry partner, the tested form may be a part): as the sequence (Q96SW2 whole entry partner, the tested form may be a part) above
T2 sequence (Q16531 2-1140 partner): as the sequence (Q16531 2-1140 partner) above

SMILES	DC50 ([1]; APIS, Jurkat, 18 h) [nM]	pDC50 ([1]; APIS, Jurkat, 18 h)	Selectivity (WT/mutant) ([1]; DC50(WT)/DC50(APIS))	degradation of EGFP tagged with HEIP degron (Western blot) [2]	degradation of EGFP tagged with AEVK degron (Western blot) [3]	Selectivity (WT/mutant) ([4]; DC50(WT)/DC50(FEVP))	DC50 ([4]; FEVP, Jurkat, 18 h) [nM]	pDC50 ([4]; FEVP, Jurkat, 18 h)	WEIS-EGFP degradation in 3T3 mouse cells [5]	compound recovered from cells (HPLC) ([6]; after 0.5 h) [nM]	compound recovered from cells (HPLC) ([6]; after 6 h) [nM]	compound recovered from cells (HPLC) ([6]; after 24 h)	degradation of EGFP tagged with WEIS degron (Western blot) [7]
CC(C)(C)c1ccc2c(c1)C(=O)N(C1CCC(=O)NC1=O)C2=O (stereo not shown) [Compound 19]	74.1	7.13	10.2 and 10	complete degradation	complete degradation	15.1	50.1	7.30	–	–	–	–	–
CN1CCN(c2ccc3c(c2)C(=O)N(C2CCC(=O)NC2=O)C3=O)CC1 (stereo not shown) [Compound 23]	–	–	–	–	–	–	–	–	modest levels of WEIS-EGFP degradation	130	30	almost no compound remaining	complete degradation
